Reference: ChEMBL document CHEMBL4364346, “Structure optimization of a new class of PPARγ antagonists” (Bioorg Med Chem, 2019)
Active and inactive are the calls of the source. The rule behind the calls is not given here.

Legend:
[1] = target: T1, Retinoic acid receptor RXR-alpha (Homo sapiens) (UniProt P19793); experiment: Antagonist activity at recombinant human pFA-CMV fused RXRalpha LBD transfected in HEK293T cells assessed as reduction in bexarotene-induced RXRalpha activation at 1 uM incubated for 12 to 14 hrs by dual glo luciferase reporter gene assay; assay type: cell-based
T1 sequence (whole entry): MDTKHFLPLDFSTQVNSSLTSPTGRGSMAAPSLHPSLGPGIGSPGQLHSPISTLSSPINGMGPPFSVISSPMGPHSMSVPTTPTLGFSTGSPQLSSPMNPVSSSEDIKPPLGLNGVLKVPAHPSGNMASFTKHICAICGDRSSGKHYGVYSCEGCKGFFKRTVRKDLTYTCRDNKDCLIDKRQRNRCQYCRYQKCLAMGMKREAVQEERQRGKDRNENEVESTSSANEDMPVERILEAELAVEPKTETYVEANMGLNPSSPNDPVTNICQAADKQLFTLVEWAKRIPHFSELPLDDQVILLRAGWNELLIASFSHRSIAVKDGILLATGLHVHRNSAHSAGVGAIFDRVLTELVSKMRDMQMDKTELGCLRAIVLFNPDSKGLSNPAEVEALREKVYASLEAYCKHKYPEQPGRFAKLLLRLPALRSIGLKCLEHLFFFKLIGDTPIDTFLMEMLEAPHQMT

[2] = target: T2, Peroxisome proliferator-activated receptor gamma (Homo sapiens, UniProt P37231); experiment: Antagonist actvity in pFA-GAL4-DBD fused PPARgamma LBD (unknown origin) transfected in HEK293T cells assessed as inhibition of rosiglitazone-induced PPARgamma transactivation incubated for 24 hrs by luciferase reporter gene assay; assay type: cell-based; details: read-out: IC50
T2 sequence (P37231 whole entry): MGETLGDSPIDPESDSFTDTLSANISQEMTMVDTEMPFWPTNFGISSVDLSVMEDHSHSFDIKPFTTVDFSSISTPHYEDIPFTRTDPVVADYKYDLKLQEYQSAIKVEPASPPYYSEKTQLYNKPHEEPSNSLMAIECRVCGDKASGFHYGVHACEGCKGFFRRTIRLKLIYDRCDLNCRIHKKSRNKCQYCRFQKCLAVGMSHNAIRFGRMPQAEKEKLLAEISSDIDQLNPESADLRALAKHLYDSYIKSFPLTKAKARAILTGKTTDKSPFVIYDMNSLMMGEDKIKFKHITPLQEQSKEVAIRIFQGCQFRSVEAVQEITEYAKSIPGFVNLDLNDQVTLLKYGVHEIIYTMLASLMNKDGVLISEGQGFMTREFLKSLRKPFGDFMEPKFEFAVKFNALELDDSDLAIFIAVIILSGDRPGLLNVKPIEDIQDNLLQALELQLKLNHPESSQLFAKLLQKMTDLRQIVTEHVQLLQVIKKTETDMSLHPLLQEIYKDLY

[3] = Metabolic stability in Sprague-Dawley rat liver microsomes assessed as remaining compound at […] incubated for 60 mins; assay type: ADME, Microsome; details: read-out: Stability
[4] = target: T3, Vitamin D3 receptor (Homo sapiens) (UniProt P11473); experiment: Agonist activity at recombinant human pFA-CMV fused VDR LBD transfected in HEK293T cells assessed as VDR activation at 1 uM incubated for 12 to 14 hrs by dual glo luciferase reporter gene assay; assay type: cell-based
T3 sequence (whole entry): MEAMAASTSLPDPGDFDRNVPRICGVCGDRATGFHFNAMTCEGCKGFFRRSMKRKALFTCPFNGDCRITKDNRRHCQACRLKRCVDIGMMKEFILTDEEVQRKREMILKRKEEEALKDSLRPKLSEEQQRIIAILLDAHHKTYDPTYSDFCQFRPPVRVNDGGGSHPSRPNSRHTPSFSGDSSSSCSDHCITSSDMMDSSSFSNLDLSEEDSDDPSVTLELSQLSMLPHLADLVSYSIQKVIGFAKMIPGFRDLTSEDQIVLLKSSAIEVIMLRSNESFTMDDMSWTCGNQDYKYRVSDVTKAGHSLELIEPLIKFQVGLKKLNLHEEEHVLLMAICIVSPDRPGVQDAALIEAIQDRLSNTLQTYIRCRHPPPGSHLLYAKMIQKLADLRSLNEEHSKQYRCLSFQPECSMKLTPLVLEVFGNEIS

[5] = target: T4, Bile acid receptor (Homo sapiens) (UniProt Q96RI1); experiment: Agonist activity at recombinant human pFA-CMV fused FXR LBD transfected in HEK293T cells assessed as FXR activation at 1 uM incubated for 12 to 14 hrs by dual glo luciferase reporter gene assay; assay type: cell-based
T4 sequence (whole entry): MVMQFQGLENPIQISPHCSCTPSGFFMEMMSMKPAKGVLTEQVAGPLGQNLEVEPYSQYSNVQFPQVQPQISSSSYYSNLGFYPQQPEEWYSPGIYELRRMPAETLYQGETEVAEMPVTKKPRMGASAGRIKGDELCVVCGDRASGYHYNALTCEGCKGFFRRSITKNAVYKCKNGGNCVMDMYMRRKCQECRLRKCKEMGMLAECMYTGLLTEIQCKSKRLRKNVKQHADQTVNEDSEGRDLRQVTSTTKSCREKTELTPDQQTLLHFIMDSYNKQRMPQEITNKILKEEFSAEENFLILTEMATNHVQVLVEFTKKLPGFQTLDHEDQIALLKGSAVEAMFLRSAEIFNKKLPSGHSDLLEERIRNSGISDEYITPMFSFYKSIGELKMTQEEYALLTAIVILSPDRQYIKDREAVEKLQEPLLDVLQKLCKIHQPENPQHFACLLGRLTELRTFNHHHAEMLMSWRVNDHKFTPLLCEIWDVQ

[6] = target: T5, Retinoic acid receptor alpha (Homo sapiens) (UniProt P10276); experiment: Antagonist activity at recombinant human pFA-CMV fused RARalpha LBD transfected in HEK293T cells assessed as reduction in tretinoin-induced RARalpha activation at 1 uM incubated for 12 to 14 hrs by dual glo luciferase reporter gene assay; assay type: cell-based
T5 sequence (whole entry): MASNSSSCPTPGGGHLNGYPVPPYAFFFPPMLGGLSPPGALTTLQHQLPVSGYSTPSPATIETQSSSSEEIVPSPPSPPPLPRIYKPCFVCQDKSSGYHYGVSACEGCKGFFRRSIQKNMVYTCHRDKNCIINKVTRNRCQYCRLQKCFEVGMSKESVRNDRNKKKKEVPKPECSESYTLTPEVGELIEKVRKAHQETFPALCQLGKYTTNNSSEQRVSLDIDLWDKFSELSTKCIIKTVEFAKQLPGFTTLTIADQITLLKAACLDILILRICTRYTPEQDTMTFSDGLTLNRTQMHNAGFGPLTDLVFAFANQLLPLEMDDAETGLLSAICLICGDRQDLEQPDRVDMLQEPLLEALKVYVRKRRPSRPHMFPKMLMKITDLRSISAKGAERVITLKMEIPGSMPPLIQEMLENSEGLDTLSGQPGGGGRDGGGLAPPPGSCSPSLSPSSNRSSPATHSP

[7] = target: T3, Vitamin D3 receptor (Homo sapiens); experiment: Antagonist activity at recombinant human pFA-CMV fused VDR LBD transfected in HEK293T cells assessed as calcitrol-induced VDR activation at 1 uM incubated for 12 to 14 hrs by dual glo luciferase reporter gene assay; assay type: cell-based
[8] = Cmax in Swiss CD1 mouse at 10 mg/kg, ip measured upto 7 hrs by LC-MS analysis; assay type: ADME, organism-based; set-up: dose 10 mg/kg, route intraperitoneal; details: in vivo

Activity [1]	IC50 [2] [µM]	remaining at 1 h [3] [%]	Activity [4]	Activity [5]	Activity [6]	Activity [7]	Cmax [8] [nM]	Structure (SMILES)
inactive	4.7	81	inactive	inactive	inactive	inactive	446	CCC/C(=C\c1cc(OCc2ccc3nc(C(F)(F)F)cc(OC)c3c2)ccc1OCCN1CCN(C)CC1)C(=O)O
inactive	2.5	95	inactive	inactive	inactive	inactive	380	CCC/C(=C\c1cc(OCc2ccc3nc(C(F)(F)F)cc(OC)c3c2)ccc1OCC1CCN(C)CC1)C(=O)O
